Holding throughout (assay): AK assay 384-well format, Prestwick library screening
One experiment deals with E. faecium. The class given is cell-based, Enterococcus faecium. To be noted: Enterococcus faecium, 3 h, 50 μM final drug concentration.
The subject of experiment [1] is S. aureus strain USA300-0114. The format is cell-based, Staphylococcus aureus. To be noted: Staphylococcus aureus, USA300, 3 h, 50 μM final drug concentration.
The subject of a further experiment is K. pneumoniae. The class given is cell-based, Klebsiella pneumoniae. The following applies: Klebsiella pneumoniae, 3 h, 50 μM final drug concentration.
In experiment [2] the test system is A. baumannii strain 98-37-09. The format is cell-based, Acinetobacter baumannii. The following applies: Acinetobacter baumannii, 983709, 3 h, 50 μM final drug concentration.
In the next experiment the test system is P. aeruginosa. The format is cell-based, Pseudomonas aeruginosa. To be noted: Pseudomonas aeruginosa, 3 h, 50 μM final drug concentration.
For a further experiment, the system named is E. cloacae. The class given is cell-based, Enterobacter cloacae. To be noted: Enterobacter cloacae, 3 h, 50 μM final drug concentration.
The next experiment relates to E. coli. The format is cell-based, Escherichia coli. To be noted: Escherichia coli, 3 h, 50 μM final drug concentration.
Where [3] appears, read: planktonic E. faecium, positive cutoff 3-fold increase, read-out: AK-based Prestwick library screening result, E. faecium (fold increase in extracellular AK activity).
[4] abbreviates: planktonic S. aureus, positive cutoff 3-fold increase, read-out: AK-based Prestwick library screening result, S. aureus (fold increase in extracellular AK activity).
The mark [5] stands for this setting: planktonic K. pneumoniae, positive cutoff 3-fold increase, read-out: AK-based Prestwick library screening result, K. pneumoniae (fold increase in extracellular AK activity).
Where [6] appears, read: planktonic A. baumannii, positive cutoff 3-fold increase, read-out: AK-based Prestwick library screening result, A. baumannii (fold increase in extracellular AK activity).
[7] abbreviates: planktonic P. aeruginosa, positive cutoff 3-fold increase, read-out: AK-based Prestwick library screening result, P. aeruginosa (fold increase in extracellular AK activity).
Where [8] appears, read: planktonic E. cloacae, positive cutoff 3-fold increase, read-out: AK-based Prestwick library screening result, E. cloacae (fold increase in extracellular AK activity).
The mark [9] stands for this setting: planktonic E. coli, positive cutoff 3-fold increase, read-out: AK-based Prestwick library screening result, E. coli (fold increase in extracellular AK activity).
Where [10] appears, read: planktonic E. faecium, cutoff for positive-scoring molecules 3-fold increase, read-out: AK-based Prestwick Library Screening Results, E. faecium (increase in extracellular AK activity).
[11] abbreviates: planktonic S. aureus, cutoff for positive-scoring molecules 3-fold increase, read-out: AK-based Prestwick Library Screening Results, S. aureus (increase in extracellular AK activity).
Where [12] appears, read: planktonic K. pneumoniae, cutoff for positive-scoring molecules 3-fold increase, read-out: AK-based Prestwick Library Screening Results, K. pneumoniae (increase in extracellular AK activity).
Setting [13] is: planktonic A. baumannii, cutoff for positive-scoring molecules 3-fold increase, read-out: AK-based Prestwick Library Screening Results, A. baumannii (increase in extracellular AK activity).
Where [14] appears, read: planktonic P. aeruginosa, cutoff for positive-scoring molecules 3-fold increase, read-out: AK-based Prestwick Library Screening Results, P. aeruginosa (increase in extracellular AK activity).
Where [15] appears, read: planktonic E. cloacae, cutoff for positive-scoring molecules 3-fold increase, read-out: AK-based Prestwick Library Screening Results, E. cloacae (increase in extracellular AK activity).
Setting [16] is: planktonic E. coli, cutoff for positive-scoring molecules 3-fold increase, read-out: AK-based Prestwick Library Screening Results, E. coli (increase in extracellular AK activity).
The mark [17] stands for this setting: planktonic, cutoff for positive-scoring molecules 3-fold increase, read-out: AK-based Prestwick Library Screening Results, E. faecium (fold increase in extracellular AK activity).
Setting [18] is: planktonic, cutoff for positive-scoring molecules 3-fold increase, read-out: AK-based Prestwick Library Screening Results, S. aureus (fold increase in extracellular AK activity).
Where [19] appears, read: planktonic, cutoff for positive-scoring molecules 3-fold increase, read-out: AK-based Prestwick Library Screening Results, K. pneumoniae (fold increase in extracellular AK activity).
[20] abbreviates: planktonic, cutoff for positive-scoring molecules 3-fold increase, read-out: AK-based Prestwick Library Screening Results, A. baumannii (fold increase in extracellular AK activity).
[21] abbreviates: planktonic, cutoff for positive-scoring molecules 3-fold increase, read-out: AK-based Prestwick Library Screening Results, P. aeruginosa (fold increase in extracellular AK activity).
Where [22] appears, read: planktonic, cutoff for positive-scoring molecules 3-fold increase, read-out: AK-based Prestwick Library Screening Results, E. cloacae (fold increase in extracellular AK activity).
[23] abbreviates: planktonic, cutoff for positive-scoring molecules 3-fold increase, read-out: AK-based Prestwick Library Screening Results, E. coli (fold increase in extracellular AK activity).

Structures are written as SMILES. Counter-ions that a name gives are not always drawn. Like-named read-outs stand apart in the source and are kept apart here.

Regarding `COCCCC/C(=N\OCCN)c1ccc(C(F)(F)F)cc1` [Fluvoxamine maleate], the fold induction at 50 µM was determined as 0.8 in the experiment on E. faecium (setting [3]); 0.7 in experiment [1] (setting [4]); 0.7 in the experiment with K. pneumoniae (setting [5]); 0.9 in experiment [2] (setting [6]); 0.8 in the experiment on P. aeruginosa (setting [7]); 1.1 in the experiment with E. cloacae (setting [8]). For the same molecule, in the experiment on E. coli (setting [9]), the fold induction at 50 µM was found to be 0.9.

Regarding `O=C(CCNNC(=O)c1ccncc1)NCc1ccccc1` [Nialamide], the fold induction at 50 µM in the experiment with E. faecium (setting [3]) stood at 1.1; in experiment [1] (setting [4]), 1.2; in the experiment with K. pneumoniae (setting [5]), 0.9; in experiment [2] (setting [6]), 1; in the experiment on P. aeruginosa (setting [7]) it was 1.2; with E. cloacae (setting [8]), 1.4. Also, the fold induction at 50 µM in the experiment with E. coli (setting [9]) was determined as 1.2.

For `C=CC(N)CCC(=O)O` (stereo not drawn) [Vigabatrin], the fold induction at 50 µM with E. faecium (setting [10]) worked out at 0.9; in experiment [1] (setting [11]), 0.7; with K. pneumoniae (setting [12]), 0.8; in experiment [2] (setting [13]) it was 1.1; in the experiment on P. aeruginosa (setting [14]), 0.9; in the experiment on E. cloacae (setting [15]), 0.8. The fold induction at 50 µM in the experiment with E. coli (setting [16]) is 1.

`CCCCC(CC)CN1CN(CC(CC)CCCC)CC(C)(N)C1` (stereo not drawn) [Hexetidine]: the fold induction at 50 µM came out at 1.1 in the experiment with E. faecium (planktonic, cutoff for positive 3-fold increase, read-out: AK-based Prestwick Library Screening Results, E. faecium (fold increase in extracellular AK activity)); 1.2 in experiment [1] (planktonic, cutoff for positive 3-fold increase, read-out: AK-based Prestwick Library Screening Results, S. aureus (fold increase in extracellular AK activity)); 1.4 in the experiment on K. pneumoniae (planktonic, cutoff for positive 3-fold increase, read-out: AK-based Prestwick Library Screening Results, K. pneumoniae (fold increase in extracellular AK activity)); 3 in experiment [2] (planktonic, cutoff for positive 3-fold increase, read-out: AK-based Prestwick Library Screening Results, A. baumannii (fold increase in extracellular AK activity)); 1.1 in the experiment on P. aeruginosa (planktonic, cutoff for positive 3-fold increase, read-out: AK-based Prestwick Library Screening Results, P. aeruginosa (fold increase in extracellular AK activity)); 1.6 in the experiment on E. cloacae (planktonic, cutoff for positive 3-fold increase, read-out: AK-based Prestwick Library Screening Results, E. cloacae (fold increase in extracellular AK activity)). Also, in the experiment on E. coli (planktonic, cutoff for positive 3-fold increase, read-out: AK-based Prestwick Library Screening Results, E. coli (fold increase in extracellular AK activity)), the fold induction at 50 µM stood at 1.5.

In the case of `O=C(O)COC(=O)Cc1ccccc1Nc1c(Cl)cccc1Cl` [Aceclofenac], the fold induction at 50 µM in the experiment with E. faecium (384-well format, cutoff for positive-scoring molecules 3-fold increase, read-out: AK-based Prestwick Library Screening Results, E. faecium (increase in extracellular AK activity)) was determined as 1; in experiment [1] (384-well format, cutoff for positive-scoring molecules 3-fold increase, read-out: AK-based Prestwick Library Screening Results, S. aureus (increase in extracellular AK activity)), 0.7; in the experiment with K. pneumoniae (384-well format, cutoff for positive-scoring molecules 3-fold increase, read-out: AK-based Prestwick Library Screening Results, K. pneumoniae (increase in extracellular AK activity)), 0.6; in experiment [2] (384-well format, cutoff for positive-scoring molecules 3-fold increase, read-out: AK-based Prestwick Library Screening Results, A. baumannii (increase in extracellular AK activity)), 0.7; in the experiment with P. aeruginosa (384-well format, cutoff for positive-scoring molecules 3-fold increase, read-out: AK-based Prestwick Library Screening Results, P. aeruginosa (increase in extracellular AK activity)) it was 0.8; in the experiment with E. cloacae (384-well format, cutoff for positive-scoring molecules 3-fold increase, read-out: AK-based Prestwick Library Screening Results, E. cloacae (increase in extracellular AK activity)), 0.8. In the experiment on E. coli (384-well format, cutoff for positive-scoring molecules 3-fold increase, read-out: AK-based Prestwick Library Screening Results, E. coli (increase in extracellular AK activity)), the fold induction at 50 µM stood at 0.7.

For the molecule `Cc1cnc(NC(=O)C2=C(O)c3ccccc3S(=O)(=O)N2C)s1` [Meloxicam], the fold induction at 50 µM in the experiment on E. faecium (setting [10]) turned out to be 0.9; in experiment [1] (setting [11]), 2; with K. pneumoniae (setting [12]) it was 0.8; in experiment [2] (setting [13]), 0.9; with P. aeruginosa (setting [14]), 0.9; in the experiment on E. cloacae (setting [15]) it was 1.2. Moreover, in the experiment on E. coli (setting [16]), the fold induction at 50 µM worked out at 1.

As for `C=CCOC(Cn1ccnc1)c1ccc(Cl)cc1Cl` (stereo not drawn) [Enilconazole], the fold induction at 50 µM with E. faecium (cutoff for positive-scoring molecules 3-fold increase, read-out: AK-based Prestwick Library Screening Results, E. faecium (fold increase in extracellular AK activity)) amounted to 1.1; in experiment [1] (cutoff for positive-scoring molecules 3-fold increase, read-out: AK-based Prestwick Library Screening Results, S. aureus (fold increase in extracellular AK activity)) it was 0.4; with K. pneumoniae (cutoff for positive-scoring molecules 3-fold increase, read-out: AK-based Prestwick Library Screening Results, K. pneumoniae (fold increase in extracellular AK activity)) it was 0.5; in experiment [2] (cutoff for positive-scoring molecules 3-fold increase, read-out: AK-based Prestwick Library Screening Results, A. baumannii (fold increase in extracellular AK activity)), 0.4; in the experiment on P. aeruginosa (cutoff for positive-scoring molecules 3-fold increase, read-out: AK-based Prestwick Library Screening Results, P. aeruginosa (fold increase in extracellular AK activity)), 0.4; with E. cloacae (cutoff for positive-scoring molecules 3-fold increase, read-out: AK-based Prestwick Library Screening Results, E. cloacae (fold increase in extracellular AK activity)) it was 0.4. Moreover, the fold induction at 50 µM in the experiment with E. coli (cutoff for positive-scoring molecules 3-fold increase, read-out: AK-based Prestwick Library Screening Results, E. coli (fold increase in extracellular AK activity)) stood at 0.5.

For the molecule `CC(C(=O)O)c1cccc(Oc2ccccc2)c1` (stereo not drawn) [Fenoprofen calcium salt dihydrate], the fold induction at 50 µM in the experiment on E. faecium (setting [17]) was found to be 0.9; in experiment [1] (setting [18]), 0.8; in the experiment with K. pneumoniae (setting [19]), 0.7; in experiment [2] (setting [20]) it was 0.8; with P. aeruginosa (setting [21]), 0.8; in the experiment with E. cloacae (setting [22]), 1.4. Moreover, in the experiment on E. coli (setting [23]), the fold induction at 50 µM is 0.8.

Consider `CCOc1ccc(Cc2nccc3cc(OCC)c(OCC)cc23)cc1OCC` [Ethaverine hydrochloride], for which the fold induction at 50 µM in the experiment with E. faecium (setting [17]) is 1; in experiment [1] (setting [18]), 0.5; with K. pneumoniae (setting [19]), 0.7; in experiment [2] (setting [20]), 0.9; with P. aeruginosa (setting [21]) it was 0.9; in the experiment on E. cloacae (setting [22]), 1. In the experiment with E. coli (setting [23]), the fold induction at 50 µM worked out at 0.9.

The record behind these values is patent publication US10004701B2, “Methods and compositions for treating infection” (UNIVERSITY OF ROCHESTER, priority 2012, dated 2018).
